AC50 data for 19 compounds are collected here from ChEMBL document CHEMBL5291721, “A preclinical secondary pharmacology resource illuminates target-adverse drug reaction associations of marketed drugs” (Nat Commun, 2023).

For one assay, the target named is Vasopressin V2 receptor (Homo sapiens, UniProt P30518).
Assay [1] deals with Voltage-dependent L-type calcium channel subunit alpha-1C (Rattus norvegicus, UniProt P22002). The format is functional.
Assay [2] deals with T1, Mu-type opioid receptor (Homo sapiens, UniProt P35372).
Assay [3] has as its target T2, Muscarinic acetylcholine receptor M2 (Homo sapiens, UniProt P08172).
T2 sequence (P08172 whole entry): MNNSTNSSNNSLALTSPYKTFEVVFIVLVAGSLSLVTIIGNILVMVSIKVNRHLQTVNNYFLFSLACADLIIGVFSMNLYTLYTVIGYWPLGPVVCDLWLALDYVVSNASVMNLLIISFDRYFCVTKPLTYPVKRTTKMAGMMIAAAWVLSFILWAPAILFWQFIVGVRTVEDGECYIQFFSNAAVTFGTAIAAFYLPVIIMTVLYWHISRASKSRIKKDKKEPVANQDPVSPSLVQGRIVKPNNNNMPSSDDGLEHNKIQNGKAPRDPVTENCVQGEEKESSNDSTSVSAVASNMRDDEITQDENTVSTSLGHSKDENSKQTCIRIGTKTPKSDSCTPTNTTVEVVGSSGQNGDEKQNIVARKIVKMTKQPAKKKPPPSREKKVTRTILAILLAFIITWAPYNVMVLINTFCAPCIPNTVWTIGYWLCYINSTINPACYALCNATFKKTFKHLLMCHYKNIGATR
The format is functional, cell-based.

In assay [4] the target is T1, Mu-type opioid receptor. The assay can be described thus: biochemical. The format is functional.
For assay [5], the target named is Muscarinic acetylcholine receptor M3 (Homo sapiens, UniProt P20309).
For a further assay, the target named is T3, Glucocorticoid receptor (Homo sapiens, UniProt P04150).
T3 sequence (P04150 whole entry): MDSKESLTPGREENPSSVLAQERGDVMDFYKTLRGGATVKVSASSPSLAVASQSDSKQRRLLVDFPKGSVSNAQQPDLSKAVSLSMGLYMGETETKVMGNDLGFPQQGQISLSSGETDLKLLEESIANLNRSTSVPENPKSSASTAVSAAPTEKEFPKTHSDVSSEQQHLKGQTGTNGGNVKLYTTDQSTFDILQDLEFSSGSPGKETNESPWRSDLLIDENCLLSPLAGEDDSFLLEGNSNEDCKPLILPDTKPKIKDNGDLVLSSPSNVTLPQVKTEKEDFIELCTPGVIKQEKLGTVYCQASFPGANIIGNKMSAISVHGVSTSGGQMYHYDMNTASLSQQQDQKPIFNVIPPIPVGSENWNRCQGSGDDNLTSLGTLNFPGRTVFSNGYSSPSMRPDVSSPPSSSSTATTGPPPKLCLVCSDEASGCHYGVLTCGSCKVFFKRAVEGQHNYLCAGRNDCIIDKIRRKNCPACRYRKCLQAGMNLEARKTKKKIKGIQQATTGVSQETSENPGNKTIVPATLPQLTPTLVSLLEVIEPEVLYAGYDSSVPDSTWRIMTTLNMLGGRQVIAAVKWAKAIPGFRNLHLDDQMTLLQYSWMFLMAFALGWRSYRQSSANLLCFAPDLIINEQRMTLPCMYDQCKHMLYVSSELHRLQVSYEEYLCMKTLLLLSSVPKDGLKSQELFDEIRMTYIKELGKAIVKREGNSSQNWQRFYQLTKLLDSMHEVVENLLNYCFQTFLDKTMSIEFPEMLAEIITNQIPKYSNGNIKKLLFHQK

The next assay deals with Histamine H3 receptor (Homo sapiens, UniProt Q9Y5N1).
The target in assay [6] is Prostaglandin G/H synthase 1 (Homo sapiens, UniProt P23219). It counts as functional.
The target in assay [7] is 5-hydroxytryptamine receptor 2B (Homo sapiens, UniProt P41595). The format is functional, cell-based.
Assay [8] deals with Sodium-dependent noradrenaline transporter (Homo sapiens, UniProt P23975).
For a further assay, the target named is T4, Thromboxane A2 receptor (Homo sapiens, UniProt P21731).
T4 sequence (P21731 whole entry): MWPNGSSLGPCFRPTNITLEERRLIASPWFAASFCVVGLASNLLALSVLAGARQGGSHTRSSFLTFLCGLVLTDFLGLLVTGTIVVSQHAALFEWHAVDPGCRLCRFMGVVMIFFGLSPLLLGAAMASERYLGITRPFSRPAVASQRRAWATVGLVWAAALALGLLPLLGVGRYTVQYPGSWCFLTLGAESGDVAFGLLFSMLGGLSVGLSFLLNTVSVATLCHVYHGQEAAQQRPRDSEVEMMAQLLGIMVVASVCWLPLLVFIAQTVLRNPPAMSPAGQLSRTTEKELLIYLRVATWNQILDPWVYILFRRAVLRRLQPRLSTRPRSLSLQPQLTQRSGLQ
The format is functional, cell-based.

The target of a further assay is Prothrombin (Homo sapiens, UniProt P00734). It counts as functional.
The target in assay [9] is T2, Muscarinic acetylcholine receptor M2.
Note: assay procedure not described here.

Vasopressin V2 receptor, sequence (P30518 whole entry): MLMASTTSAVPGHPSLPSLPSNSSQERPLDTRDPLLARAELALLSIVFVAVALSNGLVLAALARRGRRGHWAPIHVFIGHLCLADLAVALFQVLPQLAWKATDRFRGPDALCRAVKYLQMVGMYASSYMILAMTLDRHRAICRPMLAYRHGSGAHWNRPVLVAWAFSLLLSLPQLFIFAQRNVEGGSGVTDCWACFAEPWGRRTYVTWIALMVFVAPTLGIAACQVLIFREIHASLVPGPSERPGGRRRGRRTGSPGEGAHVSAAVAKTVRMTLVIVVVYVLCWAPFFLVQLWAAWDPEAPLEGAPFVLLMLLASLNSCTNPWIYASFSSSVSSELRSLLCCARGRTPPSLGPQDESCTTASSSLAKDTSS
Muscarinic acetylcholine receptor M3, sequence (P20309 whole entry): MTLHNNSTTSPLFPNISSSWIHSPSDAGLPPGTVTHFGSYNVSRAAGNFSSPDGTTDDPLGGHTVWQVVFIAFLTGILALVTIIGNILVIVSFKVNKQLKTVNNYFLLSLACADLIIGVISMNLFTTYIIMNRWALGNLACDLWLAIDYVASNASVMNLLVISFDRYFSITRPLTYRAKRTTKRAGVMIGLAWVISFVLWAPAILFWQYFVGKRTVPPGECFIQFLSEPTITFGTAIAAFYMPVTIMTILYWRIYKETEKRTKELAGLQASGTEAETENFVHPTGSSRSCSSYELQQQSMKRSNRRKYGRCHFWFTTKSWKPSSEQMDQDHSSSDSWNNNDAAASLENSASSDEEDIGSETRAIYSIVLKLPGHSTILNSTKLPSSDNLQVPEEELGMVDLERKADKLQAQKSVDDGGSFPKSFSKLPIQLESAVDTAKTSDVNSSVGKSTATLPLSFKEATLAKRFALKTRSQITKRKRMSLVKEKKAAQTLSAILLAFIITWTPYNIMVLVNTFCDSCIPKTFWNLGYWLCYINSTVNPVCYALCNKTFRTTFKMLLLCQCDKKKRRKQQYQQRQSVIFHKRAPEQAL
T1 sequence (P35372 whole entry): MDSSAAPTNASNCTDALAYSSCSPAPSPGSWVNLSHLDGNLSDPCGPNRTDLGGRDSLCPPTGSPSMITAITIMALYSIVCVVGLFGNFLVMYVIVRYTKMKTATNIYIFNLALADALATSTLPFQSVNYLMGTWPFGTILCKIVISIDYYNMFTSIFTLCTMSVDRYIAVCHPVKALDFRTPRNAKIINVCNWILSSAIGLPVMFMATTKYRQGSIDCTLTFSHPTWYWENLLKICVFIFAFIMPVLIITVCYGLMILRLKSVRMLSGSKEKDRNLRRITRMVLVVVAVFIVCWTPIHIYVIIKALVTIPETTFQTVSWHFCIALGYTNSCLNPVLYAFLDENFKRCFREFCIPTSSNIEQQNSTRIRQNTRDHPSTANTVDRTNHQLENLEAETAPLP
Histamine H3 receptor, sequence (Q9Y5N1 whole entry): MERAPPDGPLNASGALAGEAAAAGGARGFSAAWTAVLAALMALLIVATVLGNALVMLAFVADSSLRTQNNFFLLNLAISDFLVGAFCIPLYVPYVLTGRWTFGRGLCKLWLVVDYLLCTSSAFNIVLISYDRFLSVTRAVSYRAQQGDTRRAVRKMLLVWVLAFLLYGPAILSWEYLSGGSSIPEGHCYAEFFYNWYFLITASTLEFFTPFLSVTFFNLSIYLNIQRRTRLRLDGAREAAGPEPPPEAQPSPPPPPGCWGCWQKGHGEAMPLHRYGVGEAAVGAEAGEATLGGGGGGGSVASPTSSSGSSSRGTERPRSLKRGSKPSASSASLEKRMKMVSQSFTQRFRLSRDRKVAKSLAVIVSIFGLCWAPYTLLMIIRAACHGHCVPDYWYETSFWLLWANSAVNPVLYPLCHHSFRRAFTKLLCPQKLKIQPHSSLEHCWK
Voltage-dependent L-type calcium channel subunit alpha-1C, sequence (P22002 whole entry): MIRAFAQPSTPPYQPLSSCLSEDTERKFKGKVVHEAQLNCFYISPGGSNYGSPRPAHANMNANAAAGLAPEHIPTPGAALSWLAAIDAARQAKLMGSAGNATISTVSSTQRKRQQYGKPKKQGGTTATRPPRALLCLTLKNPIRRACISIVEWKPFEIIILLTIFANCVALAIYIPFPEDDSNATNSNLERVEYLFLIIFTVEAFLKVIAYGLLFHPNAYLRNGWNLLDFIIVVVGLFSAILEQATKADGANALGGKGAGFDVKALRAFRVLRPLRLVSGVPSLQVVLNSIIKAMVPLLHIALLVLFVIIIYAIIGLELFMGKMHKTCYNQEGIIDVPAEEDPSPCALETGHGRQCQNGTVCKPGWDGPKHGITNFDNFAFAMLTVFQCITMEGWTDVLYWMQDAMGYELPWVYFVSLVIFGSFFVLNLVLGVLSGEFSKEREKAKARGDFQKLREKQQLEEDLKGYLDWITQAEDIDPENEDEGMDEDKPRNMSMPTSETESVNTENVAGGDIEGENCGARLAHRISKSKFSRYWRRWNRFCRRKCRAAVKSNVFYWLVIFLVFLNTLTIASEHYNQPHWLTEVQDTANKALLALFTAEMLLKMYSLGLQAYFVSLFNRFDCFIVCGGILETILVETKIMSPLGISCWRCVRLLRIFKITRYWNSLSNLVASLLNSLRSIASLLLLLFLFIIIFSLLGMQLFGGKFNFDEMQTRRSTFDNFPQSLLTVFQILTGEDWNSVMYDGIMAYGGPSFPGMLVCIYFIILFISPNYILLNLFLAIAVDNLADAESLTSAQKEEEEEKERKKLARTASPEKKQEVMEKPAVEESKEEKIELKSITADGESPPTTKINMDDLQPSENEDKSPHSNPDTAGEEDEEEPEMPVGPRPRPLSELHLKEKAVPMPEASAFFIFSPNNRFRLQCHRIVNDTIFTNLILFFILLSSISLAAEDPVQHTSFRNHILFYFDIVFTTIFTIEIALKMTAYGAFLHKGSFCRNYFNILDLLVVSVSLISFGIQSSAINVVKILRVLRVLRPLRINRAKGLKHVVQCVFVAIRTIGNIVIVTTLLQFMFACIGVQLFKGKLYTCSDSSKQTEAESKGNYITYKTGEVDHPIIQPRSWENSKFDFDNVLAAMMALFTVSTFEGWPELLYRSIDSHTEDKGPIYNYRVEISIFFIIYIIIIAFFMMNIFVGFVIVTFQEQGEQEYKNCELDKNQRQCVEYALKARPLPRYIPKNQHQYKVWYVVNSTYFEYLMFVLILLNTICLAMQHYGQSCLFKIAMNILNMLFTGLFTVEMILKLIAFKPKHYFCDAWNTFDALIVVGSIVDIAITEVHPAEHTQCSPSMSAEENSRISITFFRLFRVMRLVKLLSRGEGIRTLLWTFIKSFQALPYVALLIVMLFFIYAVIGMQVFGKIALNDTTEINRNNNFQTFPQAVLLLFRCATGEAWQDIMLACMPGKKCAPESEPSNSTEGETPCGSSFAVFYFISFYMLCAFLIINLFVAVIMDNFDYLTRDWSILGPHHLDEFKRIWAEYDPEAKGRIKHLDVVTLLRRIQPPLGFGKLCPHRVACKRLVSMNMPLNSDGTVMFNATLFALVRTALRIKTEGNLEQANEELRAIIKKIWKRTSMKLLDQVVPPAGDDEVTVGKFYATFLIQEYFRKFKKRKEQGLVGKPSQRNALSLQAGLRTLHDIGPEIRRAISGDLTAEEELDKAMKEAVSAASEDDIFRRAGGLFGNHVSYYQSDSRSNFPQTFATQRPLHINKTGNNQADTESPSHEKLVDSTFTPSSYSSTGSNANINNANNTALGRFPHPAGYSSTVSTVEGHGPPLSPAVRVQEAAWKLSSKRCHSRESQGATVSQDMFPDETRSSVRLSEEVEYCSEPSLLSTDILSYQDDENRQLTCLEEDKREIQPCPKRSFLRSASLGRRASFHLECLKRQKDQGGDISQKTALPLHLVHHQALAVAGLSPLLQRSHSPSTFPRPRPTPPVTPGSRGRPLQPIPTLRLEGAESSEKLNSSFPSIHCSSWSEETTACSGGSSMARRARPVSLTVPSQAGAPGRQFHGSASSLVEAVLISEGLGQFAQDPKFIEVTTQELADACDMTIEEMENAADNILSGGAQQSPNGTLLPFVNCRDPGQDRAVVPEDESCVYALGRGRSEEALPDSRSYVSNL
5-hydroxytryptamine receptor 2B, sequence (P41595 whole entry): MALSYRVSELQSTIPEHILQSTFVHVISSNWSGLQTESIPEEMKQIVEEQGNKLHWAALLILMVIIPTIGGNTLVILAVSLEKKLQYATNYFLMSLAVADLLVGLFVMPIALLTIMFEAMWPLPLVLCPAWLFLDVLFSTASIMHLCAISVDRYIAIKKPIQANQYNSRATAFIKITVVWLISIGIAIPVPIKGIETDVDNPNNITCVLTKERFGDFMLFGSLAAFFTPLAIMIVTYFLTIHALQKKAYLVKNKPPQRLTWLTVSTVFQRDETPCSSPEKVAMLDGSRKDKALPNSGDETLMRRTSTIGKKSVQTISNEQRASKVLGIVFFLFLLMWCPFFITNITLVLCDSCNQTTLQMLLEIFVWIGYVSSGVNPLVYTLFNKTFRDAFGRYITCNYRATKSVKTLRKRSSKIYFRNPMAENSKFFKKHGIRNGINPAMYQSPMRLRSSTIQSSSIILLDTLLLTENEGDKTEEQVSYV
Prostaglandin G/H synthase 1, sequence (P23219 whole entry): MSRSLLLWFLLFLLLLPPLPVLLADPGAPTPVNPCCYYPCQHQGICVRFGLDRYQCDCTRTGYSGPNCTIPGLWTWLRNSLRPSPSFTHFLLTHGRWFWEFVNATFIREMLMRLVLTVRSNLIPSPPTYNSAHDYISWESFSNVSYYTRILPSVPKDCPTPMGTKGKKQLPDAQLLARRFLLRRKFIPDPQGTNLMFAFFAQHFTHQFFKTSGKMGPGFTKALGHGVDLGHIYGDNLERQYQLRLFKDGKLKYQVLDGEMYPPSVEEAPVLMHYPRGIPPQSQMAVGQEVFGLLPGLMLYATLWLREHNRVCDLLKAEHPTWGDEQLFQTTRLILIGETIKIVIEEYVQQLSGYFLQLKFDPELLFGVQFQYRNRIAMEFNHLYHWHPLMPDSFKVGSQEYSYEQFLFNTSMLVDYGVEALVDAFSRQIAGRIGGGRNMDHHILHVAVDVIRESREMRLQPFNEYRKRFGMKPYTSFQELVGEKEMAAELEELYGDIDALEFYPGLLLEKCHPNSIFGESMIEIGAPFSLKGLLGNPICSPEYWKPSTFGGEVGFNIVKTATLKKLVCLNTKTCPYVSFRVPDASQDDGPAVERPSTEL

In the case of `NC[C@H]1CC[C@H](C(=O)O)CC1` [TRANEXAMIC ACID], the AC50 is over 10 µM at Vasopressin V2 receptor; over 10 µM in [1]; over 30 µM on Mu-type opioid receptor [2]; over 10 µM in [3]; over 30 µM at Mu-type opioid receptor [4].
Regarding `CCc1nn(CCCN2CCN(c3cccc(Cl)c3)CC2)c(=O)n1CCOc1ccccc1` [NEFAZODONE], the AC50 was over 30 µM at Vasopressin V2 receptor; over 10 µM in assay [5]; over 10 µM in assay [1]; 3.8 µM at Mu-type opioid receptor [2]; 7.6 µM at Mu-type opioid receptor [4].
On to `CNC(=O)c1cc(Oc2ccc(NC(=O)Nc3ccc(Cl)c(C(F)(F)F)c3)cc2)ccn1` [SORAFENIB], for which the AC50 (at Vasopressin V2 receptor; at Glucocorticoid receptor; in assay [5]; in [1]; on Mu-type opioid receptor [2]; in [3]) was over 30 µM in each case. The AC50 at Histamine H3 receptor and on Mu-type opioid receptor [4] was over 30 µM throughout.
As for `NC[C@H]1O[C@H](O[C@H]2[C@H](O)[C@@H](O[C@H]3O[C@H](CO)[C@@H](O)[C@H](N)[C@H]3O)[C@H](N)C[C@@H]2N)[C@H](O)[C@@H](O)[C@@H]1O` [KANAMYCIN], the AC50 at Vasopressin V2 receptor is over 10 µM; on Glucocorticoid receptor, over 10 µM; in assay [1], over 10 µM; on Mu-type opioid receptor [2], over 30 µM; in assay [3] it was over 10 µM; on Mu-type opioid receptor [4] it was over 30 µM.
`CC(C(=O)O)c1ccc(C(=O)c2cccs2)cc1` (stereo not given) [SUPROFEN]: the AC50 at Vasopressin V2 receptor is over 10 µM; on Glucocorticoid receptor, over 10 µM; in assay [5], over 30 µM; in assay [1] it was over 10 µM; at Mu-type opioid receptor [2] it was over 30 µM; in assay [3] it was over 10 µM. On Histamine H3 receptor, the AC50 is over 10 µM.
On to `NC1=NC(=O)C(c2ccccc2)O1` (stereo not given) [PEMOLINE], for which the AC50 on Vasopressin V2 receptor was over 30 µM; on Glucocorticoid receptor it was over 30 µM; in assay [1] it was over 10 µM; on Mu-type opioid receptor [2] it was over 30 µM; in assay [3], over 10 µM; at Histamine H3 receptor, over 10 µM. The AC50 at Mu-type opioid receptor [4] is over 30 µM.
In the case of `CN1C(=O)CC(C)(c2ccccc2)C1=O` (stereo not given) [METHSUXIMIDE], the AC50 is over 10 µM on Vasopressin V2 receptor; over 10 µM on Glucocorticoid receptor; over 30 µM in assay [5]; over 10 µM in assay [1]; over 30 µM at Mu-type opioid receptor [2]; over 10 µM in [3]. This compound gave an AC50 at Mu-type opioid receptor [4] of over 30 µM.
`OCc1cc([C@@H](O)CNCCCCCCOCCOCc2c(Cl)cccc2Cl)ccc1O` [VILANTEROL]: the half-maximal activity concentration (AC50) (in assay [5]; on Mu-type opioid receptor [2]; in assay [3]; on Histamine H3 receptor) was over 30 µM in each case.
With `O=C(O)c1cc(-c2ccc(F)cc2F)ccc1O` [DIFLUNISAL], the AC50 at Vasopressin V2 receptor was over 10 µM; at Glucocorticoid receptor, over 10 µM; in assay [1], over 10 µM; on Mu-type opioid receptor [2], over 30 µM; in assay [3], over 10 µM; on Mu-type opioid receptor [4], over 30 µM.
For `CC(=O)c1ccc2c(c1)N(CCCN1CCN(CCO)CC1)c1ccccc1S2` [ACETOPHENAZINE], the AC50 is over 30 µM in [5], over 30 µM at Mu-type opioid receptor [2], over 10 µM in assay [3] and 21 µM at Histamine H3 receptor.
For `C[C@@H]1O[C@@H]1P(=O)(O)O` [FOSFOMYCIN], the AC50 is over 10 µM on Vasopressin V2 receptor; over 30 µM on Glucocorticoid receptor; over 30 µM in assay [5]; over 10 µM in assay [1]; over 30 µM on Mu-type opioid receptor [2]; over 10 µM in [3].
Regarding `COC(=O)[C@@H]1CC2=CC(=O)CC[C@]2(C)[C@@]23O[C@@H]2C[C@@]2(C)[C@@H](CC[C@@]24CCC(=O)O4)[C@H]13` [EPLERENONE], the AC50 was over 30 µM at Vasopressin V2 receptor; over 30 µM in [5]; over 10 µM in assay [1]; over 30 µM at Mu-type opioid receptor [2]; over 30 µM in [3]; over 30 µM on Histamine H3 receptor.
Regarding `Cc1ccc(C(=O)c2cc(O)c(O)c([N+](=O)[O-])c2)cc1` [TOLCAPONE], the AC50 at Vasopressin V2 receptor is over 10 µM; at Glucocorticoid receptor, over 30 µM; in assay [5] it was over 30 µM; in assay [1], over 10 µM; at Mu-type opioid receptor [2] it was over 30 µM; in [3], over 10 µM. The same compound gave a concentration at half-maximal activity (AC50) on Histamine H3 receptor of over 10 µM.
Regarding `COC(=O)N[C@H](C(=O)N[C@@H](Cc1ccccc1)[C@@H](O)CN(Cc1ccc(-c2ccccn2)cc1)NC(=O)[C@@H](NC(=O)OC)C(C)(C)C)C(C)(C)C` [ATAZANAVIR], the AC50 was over 30 µM on Vasopressin V2 receptor; over 30 µM on Glucocorticoid receptor; over 30 µM in [5]; over 10 µM in assay [1]; over 30 µM on Mu-type opioid receptor [2]; over 10 µM in assay [3]. In addition, the AC50 at Histamine H3 receptor was over 10 µM.
Turning to `O=C(CCCCCCC(=O)Nc1ccccc1)NO` [VORINOSTAT], the AC50 was over 30 µM at Vasopressin V2 receptor; over 30 µM in assay [5]; over 10 µM in [1]; over 30 µM at Mu-type opioid receptor [2]; over 30 µM in assay [3]; over 30 µM at Histamine H3 receptor. On Mu-type opioid receptor [4], this compound yielded an AC50 of over 30 µM.
Turning to `CC(C)Cc1ccc(CC(=O)O)cc1` [IBUFENAC], the AC50 (in assay [5]; at Mu-type opioid receptor [2]; in assay [3]; on Histamine H3 receptor) was over 30 µM in each case.
As to `C[C@H]1C[C@@H]2[C@H]([C@@H](O)C[C@@]3(C)[C@H]2CC[C@]3(O)C(=O)CO)[C@@]2(C)C=CC(=O)C=C12` [METHYLPREDNISOLONE], the AC50 was over 10 µM at Vasopressin V2 receptor; over 10 µM in assay [1]; over 30 µM on Mu-type opioid receptor [2]; over 10 µM in assay [3]; over 30 µM at Mu-type opioid receptor [4].
As for `C[C@H]1O[C@H](O[C@H]2[C@H](O)[C@@H](O)[C@@H](O[C@H]3[C@H](O)[C@@H](O)C(O)O[C@@H]3CO)O[C@@H]2CO)[C@H](O)[C@@H](O)[C@@H]1N[C@H]1C=C(CO)[C@@H](O)[C@H](O)[C@H]1O` (stereo not given in full) [ACARBOSE], the AC50 in assay [6] is over 30 µM; in assay [7], over 30 µM; on Vasopressin V2 receptor, over 30 µM; on Glucocorticoid receptor, over 30 µM; in assay [8], over 30 µM; in assay [1], over 10 µM. In addition, the half-maximal activity concentration (AC50) on Mu-type opioid receptor [2] is over 10 µM; on Thromboxane A2 receptor, over 30 µM; at Prothrombin, over 30 µM; in assay [9] it was over 30 µM; in assay [3], over 10 µM; at Histamine H3 receptor, over 30 µM. The same compound returned an AC50 on Mu-type opioid receptor [4] of over 30 µM.
In the case of `COC(=O)C1=C(C)NC(C)=C(C(=O)OCC(C)C)C1c1ccccc1[N+](=O)[O-]` (stereo not given) [NISOLDIPINE], the AC50 on Vasopressin V2 receptor is over 10 µM; at Glucocorticoid receptor it was 8.8 µM; in assay [1] it was 4.62 µM; at Mu-type opioid receptor [2] it was 9.4 µM; in assay [3], over 10 µM; at Mu-type opioid receptor [4], over 30 µM.
